{"source": "ChEMBL document CHEMBL5344418", "about": "“Recent developments in antimalarial activities of 4-aminoquinoline derivatives” (Eur J Med Chem, 2023)", "key": {"[1]": {"assay": "Cytotoxicity against African green monkey Vero cells assessed as reduction in cell viability incubated for 24 hrs by MTT assay", "type": "toxicity, cell-based", "conditions": "African green monkey (Chlorocebus sabaeus)"}, "Plasmodium falciparum": {"test_system": "Plasmodium falciparum", "assay": "Antiplasmodial activity against Plasmodium falciparum W2 assessed as reduction in plasmodial growth after 48 hrs by fluorescence based analysis", "type": "functional, organism-based", "conditions": "W2, 48 h"}}, "data": [{"smiles": "CCN(CC)c1ccc2c(c1)C(=O)N(CCC(=O)NCCNc1ccnc3cc(Cl)ccc13)C2=O", "values": [{"measurement": "IC50 at 24 h", "setting": "[1]", "result": 203000, "unit": "nM"}]}, {"smiles": "O=C(CN1C(=O)c2ccc(N3CCOCC3)cc2C1=O)NCCCCCCNc1ccnc2cc(Cl)ccc12", "values": [{"measurement": "IC50", "setting": "Plasmodium falciparum", "result": 1780, "unit": "nM"}, {"measurement": "IC50 at 24 h", "setting": "[1]", "result": 20200, "unit": "nM"}]}, {"smiles": "O=C(CCN1C(=O)c2ccc(F)cc2C1=O)NCCCCNc1ccnc2cc(Cl)ccc12", "values": [{"measurement": "IC50", "setting": "Plasmodium falciparum", "result": 220, "unit": "nM"}, {"measurement": "IC50 at 24 h", "setting": "[1]", "result": 110000, "unit": "nM"}]}, {"smiles": "O=C(CN1C(=O)c2ccc(N3CCOCC3)cc2C1=O)NCCNc1ccnc2cc(Cl)ccc12", "values": [{"measurement": "IC50", "setting": "Plasmodium falciparum", "result": 3210, "unit": "nM"}, {"measurement": "IC50 at 24 h", "setting": "[1]", "result": "> 203000", "unit": "nM"}]}, {"smiles": "O=C(CCN1C(=O)c2ccc(N3CCN(CCO)CC3)cc2C1=O)NCCNc1ccnc2cc(Cl)ccc12", "values": [{"measurement": "IC50", "setting": "Plasmodium falciparum", "result": 280, "unit": "nM"}]}, {"smiles": "O=C(CCN1C(=O)c2ccccc2C1=O)NCCCCNc1ccnc2cc(Cl)ccc12", "values": [{"measurement": "IC50", "setting": "Plasmodium falciparum", "result": 410, "unit": "nM"}, {"measurement": "IC50 at 24 h", "setting": "[1]", "result": "> 222000", "unit": "nM"}]}, {"smiles": "O=C(CCN1C(=O)c2ccc(N3CCOCC3)cc2C1=O)NCCNc1ccnc2cc(Cl)ccc12", "values": [{"measurement": "IC50", "setting": "Plasmodium falciparum", "result": 130, "unit": "nM"}, {"measurement": "IC50 at 24 h", "setting": "[1]", "result": 26500, "unit": "nM"}]}, {"smiles": "O=C(CCN1C(=O)c2ccccc2C1=O)NCCCCCCNc1ccnc2cc(Cl)ccc12", "values": [{"measurement": "IC50", "setting": "Plasmodium falciparum", "result": 290, "unit": "nM"}, {"measurement": "IC50 at 24 h", "setting": "[1]", "result": 87500, "unit": "nM"}]}, {"smiles": "CCN(CC)c1ccc2c(c1)C(=O)N(CC(=O)NCCNc1ccnc3cc(Cl)ccc13)C2=O", "values": [{"measurement": "IC50", "setting": "Plasmodium falciparum", "result": 1140, "unit": "nM"}, {"measurement": "IC50 at 24 h", "setting": "[1]", "result": 44400, "unit": "nM"}]}, {"smiles": "O=C(CN1C(=O)c2ccc(F)cc2C1=O)NCCNc1cccc2cc(Cl)ccc12", "values": [{"measurement": "IC50", "setting": "Plasmodium falciparum", "result": 1990, "unit": "nM"}, {"measurement": "IC50 at 24 h", "setting": "[1]", "result": "> 235000", "unit": "nM"}]}, {"smiles": "O=C(CCCN1C(=O)c2ccccc2C1=O)NCCCCCCNc1ccnc2cc(Cl)ccc12", "values": [{"measurement": "IC50", "setting": "Plasmodium falciparum", "result": 1570, "unit": "nM"}, {"measurement": "IC50 at 24 h", "setting": "[1]", "result": "> 203000", "unit": "nM"}]}, {"smiles": "O=C(CCN1C(=O)c2ccccc2C1=O)NCCCCCCCCNc1ccnc2cc(Cl)ccc12", "values": [{"measurement": "IC50", "setting": "Plasmodium falciparum", "result": 150, "unit": "nM"}, {"measurement": "IC50 at 24 h", "setting": "[1]", "result": "> 198000", "unit": "nM"}]}, {"smiles": "O=C(CCN1C(=O)c2ccc(N3CCOCC3)cc2C1=O)NCCCCNc1ccnc2cc(Cl)ccc12", "values": [{"measurement": "IC50", "setting": "Plasmodium falciparum", "result": 220, "unit": "nM"}, {"measurement": "IC50 at 24 h", "setting": "[1]", "result": 136000, "unit": "nM"}]}, {"smiles": "O=C(CCCN1C(=O)c2ccccc2C1=O)NCCCCCCCCNc1ccnc2cc(Cl)ccc12", "values": [{"measurement": "IC50", "setting": "Plasmodium falciparum", "result": 580, "unit": "nM"}, {"measurement": "IC50 at 24 h", "setting": "[1]", "result": 102000, "unit": "nM"}]}, {"smiles": "O=C(CN1C(=O)c2ccc(N3CCOCC3)cc2C1=O)NCCCCNc1ccnc2cc(Cl)ccc12", "values": [{"measurement": "IC50", "setting": "Plasmodium falciparum", "result": 1280, "unit": "nM"}, {"measurement": "IC50 at 24 h", "setting": "[1]", "result": "> 192000", "unit": "nM"}]}, {"smiles": "O=C(CN1C(=O)c2ccc(F)cc2C1=O)NCCCCNc1ccnc2cc(Cl)ccc12", "values": [{"measurement": "IC50", "setting": "Plasmodium falciparum", "result": 1050, "unit": "nM"}, {"measurement": "IC50 at 24 h", "setting": "[1]", "result": "> 220000", "unit": "nM"}]}, {"smiles": "O=C(CCN1C(=O)c2ccccc2C1=O)NCCNc1ccnc2cc(Cl)ccc12", "values": [{"measurement": "IC50", "setting": "Plasmodium falciparum", "result": 300, "unit": "nM"}, {"measurement": "IC50 at 24 h", "setting": "[1]", "result": "> 237000", "unit": "nM"}]}, {"smiles": "O=C(CCN1C(=O)c2ccc(F)cc2C1=O)NCCNc1ccnc2cc(Cl)ccc12", "values": [{"measurement": "IC50", "setting": "Plasmodium falciparum", "result": 360, "unit": "nM"}, {"measurement": "IC50 at 24 h", "setting": "[1]", "result": 93200, "unit": "nM"}]}, {"smiles": "O=C(CN1C(=O)c2ccc(F)cc2C1=O)NCCCCCCNc1ccnc2cc(Cl)ccc12", "values": [{"measurement": "IC50", "setting": "Plasmodium falciparum", "result": 1490, "unit": "nM"}, {"measurement": "IC50 at 24 h", "setting": "[1]", "result": "> 207000", "unit": "nM"}]}, {"smiles": "O=C(CCN1C(=O)c2ccc(F)cc2C1=O)NCCCCCCNc1ccnc2cc(Cl)ccc12", "values": [{"measurement": "IC50", "setting": "Plasmodium falciparum", "result": 660, "unit": "nM"}, {"measurement": "IC50 at 24 h", "setting": "[1]", "result": 57200, "unit": "nM"}]}, {"smiles": "O=C(CN1C(=O)c2ccccc2C1=O)NCCCCCCNc1ccnc2cc(Cl)ccc12", "values": [{"measurement": "IC50", "setting": "Plasmodium falciparum", "result": 3350, "unit": "nM"}, {"measurement": "IC50 at 24 h", "setting": "[1]", "result": 248000, "unit": "nM"}]}, {"smiles": "CCN(CC)c1ccc2c(c1)C(=O)N(CC(=O)NCCCCNc1ccnc3cc(Cl)ccc13)C2=O", "values": [{"measurement": "IC50", "setting": "Plasmodium falciparum", "result": 1170, "unit": "nM"}, {"measurement": "IC50 at 24 h", "setting": "[1]", "result": 46900, "unit": "nM"}]}, {"smiles": "O=C(CN1C(=O)c2ccccc2C1=O)NCCCCCCCCNc1ccnc2cc(Cl)ccc12", "values": [{"measurement": "IC50", "setting": "Plasmodium falciparum", "result": 240, "unit": "nM"}, {"measurement": "IC50 at 24 h", "setting": "[1]", "result": "> 203000", "unit": "nM"}]}, {"smiles": "CCN(CC)c1ccc2c(c1)C(=O)N(CCC(=O)NCCCCNc1ccnc3cc(Cl)ccc13)C2=O", "values": [{"measurement": "IC50", "setting": "Plasmodium falciparum", "result": 260, "unit": "nM"}, {"measurement": "IC50 at 24 h", "setting": "[1]", "result": 84400, "unit": "nM"}]}, {"smiles": "O=C(CN1C(=O)c2ccccc2C1=O)NCCNc1ccnc2cc(Cl)ccc12", "values": [{"measurement": "IC50", "setting": "Plasmodium falciparum", "result": 5650, "unit": "nM"}, {"measurement": "IC50 at 24 h", "setting": "[1]", "result": "> 245000", "unit": "nM"}]}, {"smiles": "O=C(CCN1C(=O)c2ccc(N3CCOCC3)cc2C1=O)NCCCCCCNc1ccnc2cc(Cl)ccc12", "values": [{"measurement": "IC50", "setting": "Plasmodium falciparum", "result": 640, "unit": "nM"}, {"measurement": "IC50 at 24 h", "setting": "[1]", "result": "> 178000", "unit": "nM"}]}, {"smiles": "O=C(CCCN1C(=O)c2ccccc2C1=O)NCCNc1ccnc2cc(Cl)ccc12", "values": [{"measurement": "IC50", "setting": "Plasmodium falciparum", "result": 280, "unit": "nM"}, {"measurement": "IC50 at 24 h", "setting": "[1]", "result": "> 229000", "unit": "nM"}]}, {"smiles": "CCN(CC)c1ccc2c(c1)C(=O)N(CC(=O)NCCCCCCNc1ccnc3cc(Cl)ccc13)C2=O", "values": [{"measurement": "IC50", "setting": "Plasmodium falciparum", "result": 1220, "unit": "nM"}, {"measurement": "IC50 at 24 h", "setting": "[1]", "result": "> 187000", "unit": "nM"}]}, {"smiles": "O=C(CN1C(=O)c2ccccc2C1=O)NCCCCNc1ccnc2cc(Cl)ccc12", "values": [{"measurement": "IC50", "setting": "Plasmodium falciparum", "result": 3660, "unit": "nM"}, {"measurement": "IC50 at 24 h", "setting": "[1]", "result": "> 229000", "unit": "nM"}]}, {"smiles": "O=C(CCCN1C(=O)c2ccccc2C1=O)NCCCCNc1ccnc2cc(Cl)ccc12", "values": [{"measurement": "IC50", "setting": "Plasmodium falciparum", "result": 840, "unit": "nM"}, {"measurement": "IC50 at 24 h", "setting": "[1]", "result": "> 215000", "unit": "nM"}]}]}
